Data published in ChEMBL document CHEMBL5705884, “Breaching the DNA damage checkpoint via PF-00477736, a novel small-molecule inhibitor of checkpoint kinase 1” (Mol Cancer Ther, 2008).
Activity calls are given as the source filed them. No cut-off for these calls is given here.

Key:
HeLa = test: Inhibition of camptothecin induced DNA damage in human HeLa cells assessed as increase in mitotic index by measuring histone H3 phosphorylation at S10 residue at 0.001 to 1 uM measured after 16 hrs presence of nocodazole by dot blot assay; type: functional, cell-based
HT-29 [1] = test: Cytotoxicity in human HT-29 cells assessed as cell survival at 360 nM measured after 4 to 48 hrs by coulter counter method relative to control; type: functional; conditions: time 4-48 hrs, read-out: Activity
COLO 205 [2] = test: Antitumor activity against human COLO 205 cells xenografted in athymic nude mouse model assessed as potentiated tumor growth inhibition at 7.5 mg/kg, ip administered once daily in presence of gemcitabine relative to control; type: functional; conditions: read-out: TGI
HT-29 [3] = test: Cytotoxicity in human HT-29 cells assessed as cell survival at 180 nM measured after 4 to 48 hrs by coulter counter method relative to control; type: functional; conditions: time 4-48 hrs, read-out: Activity
[4] = Clearance in Sprague-Dawley rat plasma at 4 mg/kg, iv administered as bolus dose by LCMS analysis; type: ADME, organism-based
COLO 205 [5] = test: In vivo inhibition of Chk1 in athymic nude mouse xenografted with gemcitabine treated human COLO 205 cells assessed as increase in histone H3 phosphorylation level at Ser10 residues at 7.5 to 15 mg/kg by immunohistochemical analysis; type: functional, organism-based; conditions: dose 7.5-15 mg/kg
COLO 205 [6] = test: Antitumor activity against human COLO 205 cells xenografted in athymic nude mouse model assessed as potentiated tumor growth inhibition at 40 mg/kg, ip administered twice daily in presence of gemcitabine relative to control; type: functional; conditions: read-out: TGI
COLO 205 [7] = test: Antitumor activity against human COLO 205 cells xenografted in athymic nude mouse model assessed as tumor growth delay by measuring test to control tumor ratio at 4 mg/kg, ip administered twice daily in presence of gemcitabine (Gemcitabine alone= 8%); type: functional
[8] = target: Tyrosine-protein kinase Yes (Homo sapiens, UniProt P07947); test: Inhibition of Yes (unknown origin)
PC-3 [9] = test: Potentiation factor, ratio of IC50 for human PC-3 cells to IC50 for human PC-3 cells in presence of doxorubicin; type: functional
HT-29 [10] = test: Induction of apoptosis in gemcitabine induced human HT-29 cells assessed as apoptotic cell death measured after 10 hrs by PI staining based flow cytometry analysis (reference value: 0.6%); type: functional
COLO 205 [11] = test: Antitumor activity against human COLO 205 cells xenografted in athymic nude mouse model assessed as tumor growth inhibition at 4 mg/kg, ip administered once daily in presence of gemcitabine (Gemcitabine alone= 58%); type: functional; conditions: read-out: TGI
HT-29 [12] = test: Potentiation of camptothecin induced cytotoxicity in human HT-29 cells assessed as cell survival at 180 nM measured after 4 to 48 hrs by coulter counter method relative to camptothecin alone; type: functional; conditions: time 4-48 hrs, read-out: Activity
COLO 205 [13] = test: Antitumor activity against human COLO 205 cells xenografted in athymic nude mouse model assessed as tumor growth delay by measuring test to control tumor ratio at 20 mg/kg, ip administered once daily in presence of gemcitabine (Gemcitabine alone= 8%); type: functional
COLO 205 [14] = test: Antitumor activity against human COLO 205 cells xenografted in athymic nude mouse model assessed as gross log cell kill at 24 mg/kg, ip administered twice daily in presence of gemcitabine (Gemcitabine alone = 0.5%); type: functional
COLO 205 [15] = test: Antitumor activity against human COLO 205 cells xenografted in athymic nude mouse model assessed as tumor growth inhibition at 4 mg/kg, ip administered twice daily in presence of gemcitabine (Gemcitabine alone= 58%); type: functional; conditions: read-out: TGI
COLO 205 [16] = test: Antitumor activity against human COLO 205 cells xenografted in athymic nude mouse model assessed as tumor growth inhibition at 15 mg/kg, ip administered twice daily in presence of gemcitabine (Gemcitabine alone = 40%); type: functional; conditions: read-out: TGI
K562 = test: Potentiation factor, ratio of IC50 for human K562 cells to IC50 for human K562 cells in presence of SN-38; type: functional
COLO 205 [17] = test: Antitumor activity against human COLO 205 cells xenografted in athymic nude mouse model assessed as gross log cell kill at 4 mg/kg, ip administered once daily in presence of gemcitabine (Gemcitabine alone = 0.5%); type: functional
HT-29 [18] = test: Potentiation factor, ratio of IC50 for human HT-29 cells to IC50 for human HT-29 cells in presence of SN-38; type: functional
CA46 = test: Inhibition of camptothecin induced DNA damage in p-53 mutated human CA46 cells assessed as G2 checkpoint abrogation at 0.001 to 1 uM measured after 16 hrs presence of nocodazole by dot blot assay; type: functional, cell-based; conditions: dose 0.001-1 µM
MDA-MB-231 [19] = test: Potentiation factor, ratio of IC50 for human MDA-MB-231 cells to IC50 for human MDA-MB-231 cells in presence of mytomicin-C; type: functional
HT-29 [20] = test: Inhibition of camptothecin induced DNA damage in human HT-29 cells assessed as increase in mitotic index by measuring histone H3 phosphorylation at S10 residue at 0.001 to 1 uM measured after 16 hrs presence of nocodazole by dot blot assay; type: functional, cell-based; conditions: HT-29, 16 h
[21] = target: Fibroblast growth factor receptor 3 (Homo sapiens, UniProt P22607); test: Inhibition of FGFR3 (unknown origin)
COLO 205 [22] = test: Antitumor activity against human COLO 205 cells xenografted in athymic nude mouse model assessed as tumor growth delay by measuring test to control tumor ratio at 7.5 mg/kg, ip administered once daily in presence of gemcitabine (Gemcitabine alone = 3%); type: functional
PC-3 [23] = test: Potentiation factor, ratio of IC50 for human PC-3 cells to IC50 for human PC-3 cells in presence of carboplatin; type: functional
COLO 205 [24] = test: Antitumor activity against human COLO 205 cells xenografted in athymic nude mouse model assessed as gross log cell kill at 40 mg/kg, ip administered twice daily in presence of gemcitabine (Gemcitabine alone = 0.5%); type: functional
[25] = AUC (0 to infinity) in nu/nu mouse at 4 mg/kg, ip by LCMS analysis; type: ADME, organism-based; conditions: in vivo
MDA-MB-231 [26] = test: Potentiation factor, ratio of IC50 for human MDA-MB-231 cells to IC50 for human MDA-MB-231 cells in presence of SN-38; type: functional
PC-3 [27] = test: Potentiation factor, ratio of IC50 for human PC-3 cells to IC50 for human PC-3 cells in presence of gemcitabine; type: functional
MDA-MB-231 [28] = test: Potentiation factor, ratio of IC50 for human MDA-MB-231 cells to IC50 for human MDA-MB-231 cells in presence of doxorubicin; type: functional
COLO 205 [29] = test: Antitumor activity against human COLO 205 cells xenografted in athymic nude mouse model assessed as gross log cell kill at 15 mg/kg, ip administered twice daily in presence of gemcitabine (Gemcitabine alone = 0.27%); type: functional
HT-29 [30] = test: Upregulation of cyclin B level in gemcitabine induced human HT-29 cells at 360 nM measured after 10 hrs by immunoblot analysis; type: functional, cell-based
[31] = Cmax in nu/nu mouse at 20 mg/kg, ip by LCMS analysis; type: ADME, organism-based; conditions: in vivo
[32] = Toxicity in athymic nude mouse assessed as effect on body weight at 4 to 20 mg/kg, ip administered twice daily in presence of gemcitabine; type: organism-based; conditions: in vivo, dose 4-20 mg/kg
HT-29 [33] = test: Potentiation of camptothecin induced cytotoxicity in human HT-29 cells assessed as cell survival at 540 nM measured after 4 to 48 hrs by coulter counter method relative to camptothecin alone; type: functional; conditions: time 4-48 hrs, read-out: Activity

Sequence of Fibroblast growth factor receptor 3 (P22607 whole entry): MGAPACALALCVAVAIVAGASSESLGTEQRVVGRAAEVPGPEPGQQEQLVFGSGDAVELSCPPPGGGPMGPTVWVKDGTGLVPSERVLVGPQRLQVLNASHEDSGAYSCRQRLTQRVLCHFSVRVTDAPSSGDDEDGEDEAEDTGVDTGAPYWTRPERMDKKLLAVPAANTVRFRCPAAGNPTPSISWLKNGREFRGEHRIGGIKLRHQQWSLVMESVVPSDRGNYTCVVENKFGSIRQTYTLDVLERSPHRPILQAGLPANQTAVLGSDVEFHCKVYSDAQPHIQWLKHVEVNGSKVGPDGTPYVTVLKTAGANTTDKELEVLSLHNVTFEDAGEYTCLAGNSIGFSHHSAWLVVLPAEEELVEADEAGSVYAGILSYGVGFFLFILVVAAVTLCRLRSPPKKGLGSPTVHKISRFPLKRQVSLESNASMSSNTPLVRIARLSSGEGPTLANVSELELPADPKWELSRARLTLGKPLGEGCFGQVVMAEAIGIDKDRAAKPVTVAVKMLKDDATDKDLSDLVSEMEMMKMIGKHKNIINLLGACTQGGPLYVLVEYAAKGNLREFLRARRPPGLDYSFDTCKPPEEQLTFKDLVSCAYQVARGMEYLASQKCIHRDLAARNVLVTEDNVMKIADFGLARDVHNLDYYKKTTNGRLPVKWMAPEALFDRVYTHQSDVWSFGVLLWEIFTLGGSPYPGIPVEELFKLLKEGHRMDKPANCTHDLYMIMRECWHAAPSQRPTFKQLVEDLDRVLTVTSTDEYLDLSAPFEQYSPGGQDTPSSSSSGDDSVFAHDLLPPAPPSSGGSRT
Sequence of Tyrosine-protein kinase Yes (P07947 whole entry): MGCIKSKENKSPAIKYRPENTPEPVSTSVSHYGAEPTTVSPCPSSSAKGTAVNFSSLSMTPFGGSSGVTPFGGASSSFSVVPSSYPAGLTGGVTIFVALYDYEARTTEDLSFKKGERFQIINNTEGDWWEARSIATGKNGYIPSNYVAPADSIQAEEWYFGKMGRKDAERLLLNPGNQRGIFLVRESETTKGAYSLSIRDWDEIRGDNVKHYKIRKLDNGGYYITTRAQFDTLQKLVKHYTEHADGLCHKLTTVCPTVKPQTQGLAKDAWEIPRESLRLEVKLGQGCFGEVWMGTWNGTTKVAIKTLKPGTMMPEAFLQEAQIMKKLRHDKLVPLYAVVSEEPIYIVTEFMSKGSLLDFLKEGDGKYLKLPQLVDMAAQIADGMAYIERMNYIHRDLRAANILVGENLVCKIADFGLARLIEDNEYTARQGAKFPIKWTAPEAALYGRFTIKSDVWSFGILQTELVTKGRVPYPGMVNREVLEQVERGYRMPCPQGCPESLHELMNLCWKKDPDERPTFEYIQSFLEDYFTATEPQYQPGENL

In the case of `Cn1cc(-c2[nH]c3cc(NC(=O)[C@H](N)C4CCCCC4)cc4c3c2C=NNC4=O)cn1`, the EC50 (HeLa) is reported as 38 nM, the viability at 0.36 µM (HT-29 [1]) is reported as 93% and the inhibition in vivo at 7.5 mg/kg (COLO 205 [2]) is reported as 23%. The viability at 0.18 µM (HT-29 [3]) was 97%, the clearance [4] was 11.8 mL/min/kg and the inhibition (COLO 205 [5]) was “Active”. It also gave an inhibition in vivo at 40 mg/kg (COLO 205 [6]) of 75%, a T/C (COLO 205 [7]) of 8 and an IC50 [8] of 29 nM. The PF50 (PC-3 [9]) was 1.5, the Activity (HT-29 [10]) was 0.1% and the inhibition in vivo at 4 mg/kg (COLO 205 [11]) was 58%. It also gave a viability at 0.18 µM (HT-29 [12]) of 90%, a T/C (COLO 205 [13]) of 12 and an LCK (COLO 205 [14]) of 0.75. The inhibition in vivo at 4 mg/kg (COLO 205 [15]) was 63%, the inhibition in vivo at 15 mg/kg (COLO 205 [16]) was 66% and the PF50 (K562) was 1.9. The LCK (COLO 205 [17]) was 0.5, the PF50 (HT-29 [18]) was 3.7 and the inhibition (CA46) was “Active”. It also gave a PF50 (MDA-MB-231 [19]) of 1.2, an EC50 (HT-29 [20]) of 42 nM and an IC50 [21] of 47 nM. It also gave a T/C (COLO 205 [22]) of 5.75, a PF50 (PC-3 [23]) of 3.1 and an LCK (COLO 205 [24]) of 1.25. It also gave an AUC(0-inf) [25] of 490 ng·h/mL, a PF50 (MDA-MB-231 [26]) of 2.4 and a PF50 (PC-3 [27]) of 12.2. For the same molecule, the PF50 (MDA-MB-231 [28]) was 2.25, the LCK (COLO 205 [29]) was 1.03 and the Activity (HT-29 [30]) was “Active”. For the same molecule, the Cmax [31] was 1290 ng/mL, the Activity [32] was “Non-Toxic” and the viability at 0.54 µM (HT-29 [33]) was 78%.
